ChEMBL document CHEMBL1649287, “Postantibiotic effect of ceftaroline against gram-positive organisms” (2009)
Converted amounts (≈) assume the structure as drawn.

Legend:
Format in all cases: functional
Enterococcus faecalis [1] = experiment: Antimicrobial activity against vancomycin-resistant Enterococcus faecalis 609 assessed as time required to induce sub-MIC effect at 0.3 times MIC after 1 hr by plate counting method; details: Enterococcus faecalis, 609, 1 h
Staphylococcus aureus [2] = experiment: Antimicrobial activity against methicillin-resistant, vancomycin-hetroresistant Staphylococcus aureus 618 by microdilution method
Enterococcus faecalis [3] = experiment: Antimicrobial activity against vancomycin-sensitive Enterococcus faecalis ATCC 29212 assessed as time required to induce sub-MIC effect at 0.4 times MIC after 1 hr by plate counting method; details: ATCC 29212, 1 h
Staphylococcus aureus [4] = experiment: Antimicrobial activity against methicillin-resistant, vancomycin-hetroresistant Staphylococcus aureus 618 assessed as time required to induce post antibiotic sub-MIC effect at 0.4 times MIC after 1 hr by plate counting method; details: Staphylococcus aureus, 618, 1 h
Staphylococcus aureus [5] = experiment: Antimicrobial activity against methicillin-resistant, vancomycin-susceptible Staphylococcus aureus vs1 assessed as time required to induce post antibiotic sub-MIC effect at 0.2 times MIC after 1 hr by plate counting method; details: vs1, 1 h
Streptococcus pneumoniae [6] = experiment: Antimicrobial activity against Penicillin-, erythromycin-resistant Streptococcus pneumoniae 37 assessed as time required to induce post antibiotic sub-MIC effect at 0.2 times MIC after 1 hr by plate counting method; details: Streptococcus pneumoniae, 37, 1 h
Staphylococcus aureus [7] = experiment: Antimicrobial activity against methicillin-resistant, vancomycin-hetroresistant Staphylococcus aureus 618 assessed as time required to induce post antibiotic sub-MIC effect at 0.3 times MIC after 1 hr by plate counting method; details: Staphylococcus aureus, 618, 1 h
Staphylococcus aureus [8] = experiment: Antimicrobial activity against methicillin-susceptible, vancomycin-susceptible Staphylococcus aureus ATCC 29213 assessed as time required to induce post antibiotic sub-MIC effect at 0.4 times MIC after 1 hr by plate counting method; details: ATCC 29213, 1 h
Staphylococcus aureus [9] = experiment: Antimicrobial activity against methicillin-susceptible, vancomycin-susceptible Staphylococcus aureus ATCC 29213 assessed as time required to induce post antibiotic sub-MIC effect at 0.3 times MIC after 1 hr by plate counting method; details: ATCC 29213, 1 h
Staphylococcus aureus [10] = experiment: Antimicrobial activity against methicillin-resistant, vancomycin-hetroresistant Staphylococcus aureus 618 assessed as time required to induce post antibiotic sub-MIC effect at 0.2 times MIC after 1 hr by plate counting method; details: Staphylococcus aureus, 618, 1 h
Staphylococcus aureus [11] = experiment: Antimicrobial activity against methicillin-resistant, vancomycin-resistant Staphylococcus aureus 770 assessed as time required to induce sub-MIC effect at 0.2 times MIC after 1 hr by plate counting method; details: Staphylococcus aureus, 770, 1 h
Enterococcus faecalis [12] = experiment: Antimicrobial activity against vancomycin-sensitive Enterococcus faecalis 20 assessed as time required to induce sub-MIC effect at 0.4 times MIC after 1 hr by plate counting method; details: Enterococcus faecalis, 20, 1 h
Streptococcus pneumoniae [13] = experiment: Antimicrobial activity against Penicillin-susceptible Streptococcus pneumoniae ATCC 49617 assessed as time required to induce sub-MIC effect at 0.3 times MIC after 1 hr by plate counting method; details: ATCC 49617, 1 h
Staphylococcus aureus [14] = experiment: Antimicrobial activity against methicillin-susceptible, vancomycin-susceptible Staphylococcus aureus ATCC 29213 by microdilution method
Enterococcus faecalis [15] = experiment: Antimicrobial activity against vancomycin-resistant Enterococcus faecalis 609 assessed as time required to induce post antibiotic sub-MIC effect at 0.2 times MIC after 1 hr by plate counting method; details: Enterococcus faecalis, 609, 1 h
Enterococcus faecalis [16] = experiment: Antimicrobial activity against vancomycin-sensitive Enterococcus faecalis ATCC 29212 assessed as time required to induce post antibiotic sub-MIC effect at 0.4 times MIC after 1 hr by plate counting method; details: ATCC 29212, 1 h
Staphylococcus aureus [17] = experiment: Antimicrobial activity against methicillin-resistant, vancomycin-resistant Staphylococcus aureus 770 assessed as time required to induce post antibiotic sub-MIC effect at 0.4 times MIC after 1 hr by plate counting method; details: Staphylococcus aureus, 770, 1 h
Streptococcus pneumoniae [18] = experiment: Antimicrobial activity against Penicillin-susceptible Streptococcus pneumoniae s502 assessed as time required to induce post antibiotic sub-MIC effect at 0.4 times MIC after 1 hr by plate counting method; details: s502, 1 h
Enterococcus faecalis [19] = experiment: Antimicrobial activity against vancomycin-sensitive Enterococcus faecalis ATCC 29212 assessed as time required to induce sub-MIC effect at 0.2 times MIC after 1 hr by plate counting method; details: ATCC 29212, 1 h
Streptococcus pneumoniae [20] = experiment: Antimicrobial activity against Penicillin-, erythromycin-resistant Streptococcus pneumoniae 37 assessed as time required to induce sub-MIC effect at 0.2 times MIC after 1 hr by plate counting method; details: Streptococcus pneumoniae, 37, 1 h
Streptococcus pneumoniae [21] = experiment: Antimicrobial activity against Penicillin-susceptible Streptococcus pneumoniae s502 assessed as time required to induce sub-MIC effect at 0.2 times MIC after 1 hr by plate counting method
Streptococcus pneumoniae [22] = experiment: Antimicrobial activity against Penicillin-susceptible Streptococcus pneumoniae ATCC 49617 assessed as time required to induce sub-MIC effect at 0.2 times MIC after 1 hr by plate counting method; details: ATCC 49617, 1 h
Enterococcus faecalis [23] = experiment: Antimicrobial activity against vancomycin-resistant Enterococcus faecalis 266 assessed as time required to induce sub-MIC effect at 0.4 times MIC after 1 hr by plate counting method; details: Enterococcus faecalis, 266, 1 h
Enterococcus faecalis [24] = experiment: Antimicrobial activity against vancomycin-sensitive Enterococcus faecalis 10 assessed as post antibiotic effect at 10 times MIC after 1 hr by plate counting method; details: Enterococcus faecalis, 10, 1 h
Streptococcus pneumoniae [25] = experiment: Antimicrobial activity against Penicillin-intermediate Streptococcus pneumoniae s1234 assessed as time required to induce sub-MIC effect at 0.2 times MIC after 1 hr by plate counting method
Enterococcus faecalis [26] = experiment: Antimicrobial activity against vancomycin-resistant Enterococcus faecalis 609 assessed as time required to induce sub-MIC effect at 0.4 times MIC after 1 hr by plate counting method; details: Enterococcus faecalis, 609, 1 h
Streptococcus pneumoniae [27] = experiment: Antimicrobial activity against Penicillin-intermediate Streptococcus pneumoniae s1234 assessed as time required to induce sub-MIC effect at 0.3 times MIC after 1 hr by plate counting method
Staphylococcus aureus [28] = experiment: Antimicrobial activity against methicillin-resistant, vancomycin-resistant Staphylococcus aureus 770 by microdilution method
Staphylococcus aureus [29] = experiment: Antimicrobial activity against methicillin-resistant, vancomycin-hetroresistant Staphylococcus aureus 618 assessed as post antibiotic effect at 10 times MIC after 1 hr by plate counting method; details: Staphylococcus aureus, 618, 1 h
Enterococcus faecalis [30] = experiment: Antimicrobial activity against vancomycin-resistant Enterococcus faecalis 266 assessed as post antibiotic effect at 10 times MIC after 1 hr by plate counting method; details: Enterococcus faecalis, 266, 1 h
Enterococcus faecalis [31] = experiment: Antimicrobial activity against vancomycin-resistant Enterococcus faecalis 609 assessed as time required to induce post antibiotic sub-MIC effect at 0.4 times MIC after 1 hr by plate counting method; details: Enterococcus faecalis, 609, 1 h
Streptococcus pneumoniae [32] = experiment: Antimicrobial activity against Penicillin-, erythromycin-resistant Streptococcus pneumoniae 37 by microdilution method
Streptococcus pneumoniae [33] = experiment: Antimicrobial activity against Streptococcus pneumoniae ATCC 10813 infected in neutropenic ICR mouse assessed as post antibiotic effect at 1.56 to 100 mg/kg, sc administered 14 hrs post infection; details: dose mg/kg 1.56-100; route subcutaneous
Enterococcus faecalis [34] = experiment: Antimicrobial activity against vancomycin-sensitive Enterococcus faecalis 10 assessed as time required to induce sub-MIC effect at 0.4 times MIC after 1 hr by plate counting method; details: Enterococcus faecalis, 10, 1 h

Question: Which time (Enterococcus faecalis [1]) does the source give for `CCO/N=C(\C(=O)N[C@@H]1C(=O)N2C(C(=O)[O-])=C(Sc3nc(-c4cc[n+](C)cc4)cs3)CS[C@H]12)c1nsc(NP(=O)(O)O)n1` [CEFTAROLINE FOSAMIL] here?
Answer: The time was 1.4 h.

Question: And the MIC (Staphylococcus aureus [2])?
Answer: Its MIC is 2 µg/mL (≈ 2.92 µM).

Question: What about the PAE (Enterococcus faecalis [3]) of the same molecule?
Answer: Its PAE is 10 h.

Question: And the time (Staphylococcus aureus [4])?
Answer: The time was 2.9 h.

Question: And the time (Staphylococcus aureus [5])?
Answer: The time was 2.7 h.

Question: And the time (Streptococcus pneumoniae [6])?
Answer: The time was 1.9 h.

Question: What about the time (Staphylococcus aureus [7]) of the same molecule?
Answer: The time was 2.7 h.

Question: What about the PAE (Staphylococcus aureus [8]) of the same molecule?
Answer: Its PAE is > 10.5 h.

Question: And the PAE (Staphylococcus aureus [9])?
Answer: Its PAE is 4.5 h.

Question: What about the time (Staphylococcus aureus [10]) of the same molecule?
Answer: The time was 2.2 h.

Question: What about the time (Staphylococcus aureus [11]) of the same molecule?
Answer: The time was 0.3 h.

Question: And the PAE (Enterococcus faecalis [12])?
Answer: Its PAE is 3.6 h.

Question: What about the PAE (Streptococcus pneumoniae [13]) of the same molecule?
Answer: Its PAE is 0.7 h.

Question: What about the MIC (Staphylococcus aureus [14]) of the same molecule?
Answer: Its MIC is 0.25 µg/mL (≈ 0.365 µM).

Question: And the time (Enterococcus faecalis [15])?
Answer: Its time is 3 h.

Question: And the PAE (Enterococcus faecalis [16])?
Answer: Its PAE is > 10.6 h.

Question: What about the time (Staphylococcus aureus [17]) of the same molecule?
Answer: The time was 7.1 h.

Question: And the PAE (Streptococcus pneumoniae [18])?
Answer: The PAE was 4.5 h.

Question: What about the PAE (Enterococcus faecalis [19]) of the same molecule?
Answer: Its PAE is 3.1 h.

Question: What about the time (Streptococcus pneumoniae [20]) of the same molecule?
Answer: The time was 0.5 h.

Question: What about the PAE (Streptococcus pneumoniae [21]) of the same molecule?
Answer: Its PAE is 0 h.

Question: And the PAE (Streptococcus pneumoniae [22])?
Answer: The PAE was 0.2 h.

Question: And the time (Enterococcus faecalis [23])?
Answer: Its time is 9.5 h.

Question: What about the PAE (Enterococcus faecalis [24]) of the same molecule?
Answer: The PAE was 0.5 h.

Question: What about the PAE (Streptococcus pneumoniae [25]) of the same molecule?
Answer: The PAE was 0 h.

Question: And the time (Enterococcus faecalis [26])?
Answer: Its time is 2.2 h.

Question: What about the PAE (Streptococcus pneumoniae [27]) of the same molecule?
Answer: Its PAE is 0 h.

Question: And the MIC (Staphylococcus aureus [28])?
Answer: The MIC was 1 µg/mL (≈ 1.46 µM).

Question: What about the PAE (Staphylococcus aureus [29]) of the same molecule?
Answer: The PAE was 0.7 h.

Question: What about the PAE (Enterococcus faecalis [30]) of the same molecule?
Answer: The PAE was 0.9 h.

Question: What about the time (Enterococcus faecalis [31]) of the same molecule?
Answer: The time was 7.9 h.

Question: What about the MIC (Streptococcus pneumoniae [32]) of the same molecule?
Answer: Its MIC is 0.25 µg/mL (≈ 0.365 µM).

Question: What about the PAE (Streptococcus pneumoniae [33]) of the same molecule?
Answer: Its PAE is 1.5 h.

Question: And the time (Enterococcus faecalis [34])?
Answer: The time was 1.8 h.
